In patent US6790833B2, “Antifungal and antibacterial agents” (priority 2001, dated 2004):
Where a SMILES comes first, the peptide text is derived from it.

Experiments:
C. albicans [1] = assay: Antifungal (cidal) activity assay, loss of cell viability; assay type: cell-based, Candida albicans; details: for Loss of Cell viability (%): Candida albicans, 6.25 μM, pH 7.4
Description: (§1) Azole-sensitive (# 2-76) and azole-resistant (# 12-99) clinical isolates of C. albicans were a gift from Dr. Theodore C. White (University of Washington and Seattle Biomedical Research Institute, Seattle, Wash.). An azole-sensitive Candida glabrata (C. glabrata) was purchased from ATCC (ATCC 90030) and its azole-resistant counterpart, clinical isolate 65C, was obtained from Dr. John E. Bennett (National Institute of Allergy and Infectious Diseases, Bethesda, Md.). A clinical isolate of Candida krusei (C. krusei) was obtained from the Erie County Medical Center, Buffalo, N.Y. Amphotericin B-sensitive (CN2) and -resistant (CN2843) C. neoformans strains were obtained from AIDS patients with cryptococcal meningitis and were generously provided by Dr. John H. Rex (University of Texas Medical School, Houston, Tex.). Additionally, Saccharomyces cerevisiae (S. serevisiae) strain S288C was provided by Dr. D. Kosman, Department of Biochemistry, University at Buffalo, the State University of New York. All fungi were streaked and grown on SAB plates at 37° C., except S. cerevisiae, which was grown at 30° C. until large colonies were formed. One colony was then picked and resuspended in Na phosphate buffer (pH 7.4) and the concentration was adjusted to 1×10^5 cell/ml for the antifungal assay described below.
(§2) Two fold serial dilutions of each peptide (ranging from 100 μM down to 1.5625 μM) in 20 μl of 10 mM Na phosphate buffer, pH 7.4, were incubated with an equal volume of bacterial or fungal strain (10^5 cells/ml) for 1.5 hours at 30° C. for S. cerevisiae and 37° C. for the rest of strains tested. At the end of incubation, the samples were diluted 20 fold and aliquots (˜120 cells) of each sample were plated on appropriate plates depending on the strain tested, as indicated above. Plates were incubated for 1 to 7 days aerobically or anaerobically, depending on the strain tested. Colonies were then counted, and the loss of cell viability was plotted as a function of protein concentration. Fungicidal activities against C. albicans and C. neoformans were also tested at 4° C.
(§3) To test the effect of inhibitors of oxidative phosphorylation in the mitochondrial system on peptide-induced killing, C. albicans and C. neoformans (CN2) were preincubated with either 20 mM sodium azide or 300 μM CCCP for 2 hours at 37° C. The cidal assays were then carried out as described above. In separate control experiments, both inhibitors were evaluated for their toxicity toward C. albicans and C. neoformans (CN2) in the absence of peptides. At these concentrations, neither compound had any cidal effect. In addition, the fungicidal activities of MUC7 20-mer and Hsn-5 (25 μM) in 10 mM Na phosphate buffer (pH 7.4) in the presence of varying concentrations (1-50 mM) of Ca^++ (as CaCl2) or Mg^++ (as MgCl2) were examined.
(§4) A time course study of peptide-induced killing was statistically analyzed by student t-test.
(§5) Two fold serial dilutions of each peptide (ranging from 50 or 25 μM down to 1.5625 μM) in 20 μl of 10 mM Na phosphate buffer, pH 7.4, were incubated with an equal volume of fungal strain (10^5 cells/ml, also in Na phosphate buffer) for 1.5 hours at 37°. At the end of incubation, the samples were diluted 20 fold with the same buffer and aliquots (˜150 cells) of each sample were plated on SAB plates. Plates were incubated for 1 to 2 days for C. albicans and C. neoformans, respectively. Colonies were then counted, and the loss of cell viability was plotted as a function of protein concentration. The statistical analysis was as described in Example 1.

C. neoformans [2] = assay: as above; assay type: cell-based, Cryptococcus neoformans; details: for Loss of Cell viability (%): Cryptococcus neoformans, 6.25 μM, pH 7.4
Description: as §1, §2, §3, §4, §5

C. albicans [3] = assay: Fungal transmembrane potential, DiSC3(5) dye release; assay type: cell-based, Candida albicans; details: peptide 18 μM, 1500 second
Procedure: (§6) Peptide-induced permeabilization of C. albicans and C. neoformas cell membranes was monitored by measuring changes in transmembrane potential. Measurements were carried out using the transmembrane potential sensitive dye 3,3′-dipropyl-2,2′-thiadicarbocyanine iodide (DiSC3(5)). Fungi were grown overnight on SAB plates and resuspended in 10 mM Na phosphate buffer pH 7.4 at a concentration of 1×10^5 cells/ml. Dye was diluted in ethanol to achieve a final concentration of 714 nM. […] The use of this dye in fungal cells to monitor changes in permeabilization is reliable and well documented. This cationic dye accumulates on membranes, is translocated into the lipid bilayer and aggregates within the confined membrane interior. Once aggregated inside the cell, the molecules interact with each other, losing energy, and decreasing fluorescence through a process called quenching. If permeabilization occurs, dye is released into the medium and it regains its fluorescent properties, allowing it to be detected. Experiments were carried out using a spectrofluorimeter (Perkin Elmer LS 50 B). A water bath and circulator was connected to the machine.

C. neoformans [4] = assay: as above; assay type: cell-based, Cryptococcus neoformans; details: peptide 18 μM, 1500 second
Procedure: as §6

C. albicans [5] = assay: Fluorescence light and confocal microscopy, internalization of FITC-labeled peptide; assay type: cell-based, Candida albicans
Procedure: (§7) The internalization of MUC7 20-mer into fungi was visualized in C. albicans and C. neoformans. Untreated cells (10^7) or cells preincubated with 20 mM sodium azide, 300 μM CCCP, 50 mM Ca^++ or 50 mM Mg^++ were then treated with 50 μM FITC-MUC7 20-mer for 45-90 minutes in 100 μl of Na phosphate buffer (10 mM, pH 7.4) at 37° C. Untreated cells were also incubated with 50 μM FITC-MUC7 20-mer at 4° C. The cells were then extensively washed with phosphate buffer, concentrated and resuspended in the same buffer. The cell suspension was then quickly mounted on slides with sealed cover-slips. Fluorescence light micrographs were made on a Nikon Optiphot microscope, with a fluorescent light source.
(§8) The intracellular localization of FITC-MUC7-20mer was investigated in a double-labeling experiment using MitoTracker Red mitochondrial probe. C. albicans and C. neoformans were incubated with 500 nM MitoTracker Red in 10 mM Na phosphate buffer, pH 7.4 for 15 minutes at room temperature, washed three times with the same buffer, and subsequently incubated with 50 μM FITC-MUC7 20-mer. After 20 min. incubation at 37° C., the suspension was washed with phosphate buffer extensively. The cell suspension was then quickly mounted on slides with sealed cover-slips. Confocal fluorescence microscopy was performed with a BioRad MRC-1024 confocal microscope system with Krypton-argon laser which outputs 488, 568 and 647 nm excitation line and Nikon upright epifluorescence microscope (Zeiss 60× oil immersion planApp objective with 1.4 numerical aperture).
(§9) The internalization of MUC7 20-mer and 12-mer-3 into fungi was visualized using FITC labeled peptides. Cells (10^7) were treated with 50 μM FITC-MUC7 20-mer or 12-mer-3 for 45-90 mins in 100 μl of Na phosphate buffer (10 mM, pH 7.4) at 37° C. The cells were then processed and visualized as described in Example 1.

C. neoformans [6] = assay: as above; assay type: cell-based, Cryptococcus neoformans
Procedure: as §7, §8, §9

A. actinomycetemcomitans = assay: Fluorescence microscopy, internalization of FITC-labeled peptide in bacteria; assay type: cell-based, Actinobacillus actinomycetemcomitans; details: data not shown
Description: In order to visualize the association of 20-mer with fungi or bacteria and its fungal cellular localization, N-terminal FITC-labeled MUC7 20-mer was used. […] In addition, confocal fluorescence microscopy was used to study the intracellular target of the peptides.

[7] = 4° C., 20 mM sodium azide, 300 μM CCCP

CC[C@H](C)[C@H](NC(=O)[C@H](Cc1ccccc1)NC(=O)[C@@H]1CCCN1C(=O)[C@H](CCCCN)NC(=O)[C@H](CCC(N)=O)NC(=O)[C@H](Cc1c[nH]cn1)NC(=O)[C@H](C)NC(=O)[C@@H](N)CC(C)C)C(=O)N[C@@H](CCCNC(=N)N)C(=O)N[C@@H](CCCCN)C(=O)N[C@@H](CO)C(=O)N[C@@H](Cc1ccc(O)cc1)C(=O)N[C@@H](CCCCN)C(=O)N[C@@H](CS)C(=O)N[C@@H](CC(C)C)C(=O)N[C@@H](Cc1c[nH]cn1)C(=O)N[C@@H](CCCCN)C(=O)N[C@@H](CCCNC(=N)N)C(=O)N[C@@H](CS)C(=O)N[C@@H](CCCNC(=N)N)C(=O)O [Peptide 20-mer] (H-LAHQKPFIRKSYKCLHKRCR-OH; N-terminus and C-terminus assumed)
killing activity at 4° C. (C. albicans [1]): ~90%
effect of pretreatment with CCCP or sodium azide on peptide-induced killing (C. albicans [1]; C. albicans, 300 μM CCCP or 20 mM sodium azide, 2 hours): did not protect
effect of 1 mM Ca++ or Mg++ on anticandidal activity (C. albicans [1]; C. albicans, 1 mM Ca++ or Mg++, peptide 25 μM): limited effect
anticandidal activity sustained in the presence of Ca++ or Mg++ (C. albicans [1]; C. albicans, 10 mM Ca++ or Mg++, peptide 25 μM): 10%
Loss of Cell viability (%) (C. albicans [1]; 15 min): 42 + 5%
Loss of Cell viability (%) (C. albicans [1]; 30 min): 52 + 1%
Loss of Cell viability (%) (C. albicans [1]; 45 min): 64 + 3%
Loss of Cell viability (%) (C. albicans [1]; 90 min): 74 + 6%
killing retained in the presence of Ca++ (C. neoformans [2]; 25 μM): 90%
killing retained in the presence of Mg++ (C. neoformans [2]; 25 μM): 84%
effect of pretreatment with CCCP or sodium azide on peptide-induced killing (C. neoformans [2]; C. neoformans, 300 μM CCCP or 20 mM sodium azide, 2 hours): did not protect
activity at 4° C. (C. neoformans [2]; C. neoformans, 4° C.): hardly affected
Loss of Cell viability (%) (C. neoformans [2]; 30 min): 96 + 2%
Loss of Cell viability (%) (C. neoformans [2]; 45 min): 98 + 1%
Loss of Cell viability (%) (C. neoformans [2]; 90 min): 100 + 0%
release of DiSC3(5) dye (loss of membrane potential) (C. albicans [3]): rapid release of dye
release of DiSC3(5) dye (loss of membrane potential) (C. neoformans [4]): rapid release of dye
internalization of FITC-labeled peptide (C. albicans [5]; 50 μM, 45-90 minutes, 37° C.): internalization is observed
uptake at 4° C. or after pretreatment with sodium azide or CCCP (C. albicans [5]; [7]): did not affect uptake
internalization of FITC-labeled peptide (C. neoformans [6]; 50 μM, 45-90 minutes, 37° C.): internalization is observed
uptake at 4° C. or after pretreatment with sodium azide or CCCP (C. neoformans [6]; [7]): did not affect uptake
internalization in bacterial cells (A. actinomycetemcomitans): seen on the cell membrane and the inside
